Assay results reported in patent publication US10435399B2, “HDAC6 inhibitory heterocyclic compound” (TAKEDA PHARMACEUTICAL COMPANY LIMITED, priority 2017, dated 2019).

target: T1, HDAC6 enzyme (Homo sapiens, UniProt Q9UBN7); assay: HDAC6 enzyme inhibitory activity (HDAC-Glo I/II Assay kit); type: biochemical; details: 10 μM; wells without enzyme = 100% inhibition
T1 construct: transducing full length HDAC6 gene into Sf-9 insect cells; GST; purchased SignalChem; host or cells: Sf-9 insect cells
T1 sequence (Q9UBN7 1-1215): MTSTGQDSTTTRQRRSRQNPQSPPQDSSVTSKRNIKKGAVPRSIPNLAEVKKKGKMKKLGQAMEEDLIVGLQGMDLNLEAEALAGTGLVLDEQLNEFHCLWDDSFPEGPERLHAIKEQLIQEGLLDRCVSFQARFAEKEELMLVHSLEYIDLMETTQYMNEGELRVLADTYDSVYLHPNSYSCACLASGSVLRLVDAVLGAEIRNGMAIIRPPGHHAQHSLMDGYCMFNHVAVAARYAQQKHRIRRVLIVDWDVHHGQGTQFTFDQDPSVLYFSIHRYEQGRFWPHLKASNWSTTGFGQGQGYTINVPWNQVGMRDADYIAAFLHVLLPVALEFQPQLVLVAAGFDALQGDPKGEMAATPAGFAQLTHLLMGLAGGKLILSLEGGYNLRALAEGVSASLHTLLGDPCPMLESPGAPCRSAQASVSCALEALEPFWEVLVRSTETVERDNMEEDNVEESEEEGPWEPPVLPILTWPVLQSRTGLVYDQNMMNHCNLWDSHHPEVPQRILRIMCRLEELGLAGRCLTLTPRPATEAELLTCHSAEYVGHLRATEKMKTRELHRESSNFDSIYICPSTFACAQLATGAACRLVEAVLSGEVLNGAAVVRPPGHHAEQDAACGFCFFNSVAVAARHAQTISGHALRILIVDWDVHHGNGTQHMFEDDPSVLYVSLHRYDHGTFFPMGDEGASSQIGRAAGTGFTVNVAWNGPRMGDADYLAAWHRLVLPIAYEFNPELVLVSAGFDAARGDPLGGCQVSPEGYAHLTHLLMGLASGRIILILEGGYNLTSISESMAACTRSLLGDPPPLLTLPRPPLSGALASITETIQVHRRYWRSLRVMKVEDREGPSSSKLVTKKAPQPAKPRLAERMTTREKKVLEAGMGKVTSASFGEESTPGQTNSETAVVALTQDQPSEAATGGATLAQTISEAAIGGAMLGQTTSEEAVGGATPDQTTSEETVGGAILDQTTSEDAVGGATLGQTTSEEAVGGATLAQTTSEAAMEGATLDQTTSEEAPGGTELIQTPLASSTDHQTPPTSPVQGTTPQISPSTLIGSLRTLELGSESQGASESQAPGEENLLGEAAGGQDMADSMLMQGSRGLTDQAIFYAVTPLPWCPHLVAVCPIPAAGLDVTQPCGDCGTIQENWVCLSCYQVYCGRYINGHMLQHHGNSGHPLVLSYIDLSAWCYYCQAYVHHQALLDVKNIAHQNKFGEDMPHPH
Outline: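 Luminescence read-out after 20 min reaction with HDAC-Glo substrate-developer, following 60 min room-temperature preincubation of compound with Sf-9-expressed, GST-purified full-length enzyme. Inhibition is relative to no-enzyme wells set as 100%.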

| HDAC6 inhibitory rate (%) (10 μM) | Compound |
| --- | --- |
| 100 | O=C1c2cc(-c3nnc(C(F)F)o3)ccc2CN1N1CCC(F)(F)CC1c1ccccc1 (stereo not drawn) [Example 554, 6-(5-(difluoromethyl)-1,3,4-oxadiazol-2-yl)-2-(4,4-difluoro-2-phenylpiperidin-1-yl)isoindolin-1-one (optical isomer)] |
| 100 | O=C1c2cc(-c3nnc(C(F)F)o3)ccc2CN1N1CCC(F)(F)CC1c1ccccc1 (stereo not drawn) [Example 555, 6-(5-(difluoromethyl)-1,3,4-oxadiazol-2-yl)-2-(4,4-difluoro-2-phenylpiperidin-1-yl)isoindolin-1-one (optical isomer)] |
| 99 | O=C1c2cc(-c3nnc(C(F)F)o3)ccc2CN1N1CCC(F)(F)CC1c1cccc(F)c1 (stereo not drawn) [Example 562, 2-(4,4-difluoro-2-(3-fluorophenyl)piperidin-1-yl)-6-(5-(difluoromethyl)-1,3,4-oxadiazol-2-yl)isoindolin-1-one (optical isomer)] |
| 100 | O=C1c2cc(-c3nnc(C(F)F)o3)ccc2CN1N1CCC(F)(F)CC1c1cccc(F)c1 (stereo not drawn) [Example 565, 2-(4,4-difluoro-2-(3-fluorophenyl)piperidin-1-yl)-6-(5-(difluoromethyl)-1,3,4-oxadiazol-2-yl)isoindolin-1-one (optical isomer)] |

same assay, conditions: 10 μM; wells without enzyme = 100% inhibition; read-out: HDAC6 inhibitory rate (%) (10 μM)

| Compound | inhibition at 10 µM [%] |
| --- | --- |
| O=C1c2cc(-c3nnc(C(F)F)o3)ccc2CN1N1CCC(F)(F)CC1c1ccccc1 (centres unmarked) [Example 530, 6-(5-(difluoromethyl)-1,3,4-oxadiazol-2-yl)-2-(4,4-difluoro-2-phenylpiperidin-1-yl)isoindolin-1-one] | 100 |
| O=C1c2cc(-c3nnc(C(F)F)o3)ccc2CN1[C@@H]1CCCC[C@H]1n1nnc2ccccc21 [Example 536, 2-((1R,2R)-2-(1H-benzotriazol-1-yl)cyclohexyl)-6-(5-(difluoromethyl)-1,3,4-oxadiazol-2-yl)isoindolin-1-one] | 100 |
| O=C1c2cc(-c3nnc(C(F)F)o3)cnc2CN1[C@@H]1CCCC[C@H]1n1nnc2ccccc21 [Example 537, 6-((1R,2R)-2-(1H-benzotriazol-1-yl)cyclohexyl)-3-(5-(difluoromethyl)-1,3,4-oxadiazol-2-yl)-6,7-dihydro-5H-pyrrolo[3,4-b]pyridin-5-one] | 100 |
| O=C1c2cc(-c3nnc(C(F)F)o3)ccc2CN1[C@@H]1CCCC[C@H]1c1nnc2ccccn12 [Example 547, 6-(5-(difluoromethyl)-1,3,4-oxadiazol-2-yl)-2-((1R,2R)-2-([1,2,4]triazolo[4,3-a]pyridin-3-yl)cyclohexyl)isoindolin-1-one] | 100 |
| O=C1c2cc(-c3nnc(C(F)F)o3)ccc2CN1N1CCCC1c1cccc(F)c1 (centres unmarked) [Example 553, 6-(5-(difluoromethyl)-1,3,4-oxadiazol-2-yl)-2-(2-(3-fluorophenyl)pyrrolidin-1-yl)isoindolin-1-one] | 100 |
| O=C1c2cc(-c3nnc(C(F)F)o3)ccc2CN1N1CCC(F)(F)CC1c1cccc(F)c1 (centres unmarked) [Example 560, 2-(4,4-difluoro-2-(3-fluorophenyl)piperidin-1-yl)-6-(5-(difluoromethyl)-1,3,4-oxadiazol-2-yl)isoindolin-1-one] | 100 |
| O=C1c2cc(-c3nnc(C(F)F)o3)ccc2CN1[C@@H]1CCOC[C@H]1n1nnc2cc(Cl)ccc21 [Example 563, 2-((3S,4R)-3-(5-chloro-1H-benzotriazol-1-yl)tetrahydro-2H-pyran-4-yl)-6-(5-(difluoromethyl)-1,3,4-oxadiazol-2-yl)isoindolin-1-one] | 100 |
| O=C1c2cc(-c3nnc(C(F)F)o3)ccc2CN1N1CCC(F)(F)CC1c1ccc(F)cc1 (centres unmarked) [Example 566, 2-(4,4-difluoro-2-(4-fluorophenyl)piperidin-1-yl)-6-(5-(difluoromethyl)-1,3,4-oxadiazol-2-yl)isoindolin-1-one] | 100 |

Now from value to compound:

| inhibition at 10 µM [%] | Compound |
| --- | --- |
| 100 | CC(C)(C)OC(=O)NC1CCC(c2cc(F)ccc2N2Cc3ccc(-c4nnc(C(F)F)o4)cc3C2=O)CC1 (centres unmarked) [Example 525, tert-butyl (4-(2-(6-(5-(difluoromethyl)-1,3,4-oxadiazol-2-yl)-1-oxo-1,3-dihydro-2H-isoindol-2-yl)-5-fluorophenyl)cyclohexyl)carbamate] |
| 99 | Cn1cc(C2CCC(NC(=O)C(F)(F)C(F)(F)F)CC2)c(N2Cc3ccc(-c4nnc(C(F)F)o4)cc3C2=O)n1 (centres unmarked) [Example 532, N-(4-(3-(6-(5-(difluoromethyl)-1,3,4-oxadiazol-2-yl)-1-oxo-1,3-dihydro-2H-isoindol-2-yl)-1-methyl-1H-pyrazol-4-yl)cyclohexyl)-2,2,3,3,3-pentafluoropropanamide] |
| 98 | O=C1c2cc(-c3nnc(C(F)F)o3)ccc2CN1c1ccc(F)cc1C1CCN(C(=O)C(F)(F)C(F)(F)F)CC1 [Example 533, 6-(5-(difluoromethyl)-1,3,4-oxadiazol-2-yl)-2-(4-fluoro-2-(1-(2,2,3,3,3-pentafluoropropanoyl)piperidin-4-yl)phenyl)isoindolin-1-one] |
| 100 | O=C1c2cc(-c3nnc(C(F)F)o3)ccc2CN1c1ccc(F)cc1C1CCC(NC(=O)C(F)(F)C(F)(F)F)CC1 (centres unmarked) [Example 534, N-(4-(2-(6-(5-(difluoromethyl)-1,3,4-oxadiazol-2-yl)-1-oxo-1,3-dihydro-2H-isoindol-2-yl)-5-fluorophenyl)cyclohexyl)-2,2,3,3,3-pentafluoropropanamide] |
| 99 | Cn1cc(C2CCN(CC(F)(F)C(F)(F)F)CC2)c(N2Cc3ccc(-c4nnc(C(F)F)o4)cc3C2=O)n1 [Example 550, 6-(5-(difluoromethyl)-1,3,4-oxadiazol-2-yl)-2-(1-methyl-4-(1-(2,2,3,3,3-pentafluoropropyl)piperidin-4-yl)-1H-pyrazol-3-yl)isoindolin-1-one] |
| 99 | Cn1cc(C2CCC(NCC(F)(F)C(F)(F)F)CC2)c(N2Cc3ccc(-c4nnc(C(F)F)o4)cc3C2=O)n1 (centres unmarked) [Example 557, 6-(5-(difluoromethyl)-1,3,4-oxadiazol-2-yl)-2-(1-methyl-4-(4-((2,2,3,3,3-pentafluoropropyl)amino)cyclohexyl)-1H-pyrazol-3-yl)isoindolin-1-one] |
| 100 | O=C(NCC(F)(F)F)C1CC(F)(F)CCN1N1Cc2ccc(-c3nnc(C(F)F)o3)cc2C1=O (centres unmarked) [Example 564, 1-(6-(5-(difluoromethyl)-1,3,4-oxadiazol-2-yl)-1-oxo-1,3-dihydro-2H-isoindol-2-yl)-4,4-difluoro-N-(2,2,2-trifluoroethyl)piperidine-2-carboxamide] |
| 95 | Cn1cc(C(=O)NCC(F)(F)F)c(N2Cc3ccc(-c4nnc(C(F)F)o4)cc3C2=O)n1 [Example 567, 3-(6-(5-(difluoromethyl)-1,3,4-oxadiazol-2-yl)-1-oxo-1,3-dihydro-2H-isoindol-2-yl)-1-methyl-N-(2,2,2-trifluoroethyl)-1H-pyrazole-4-carboxamide] |
| 96 | Cn1cc(C(=O)NCC2CC2)c(N2Cc3ccc(-c4nnc(C(F)F)o4)cc3C2=O)n1 [Example 568, N-(cyclopropylmethyl)-3-(6-(5-(difluoromethyl)-1,3,4-oxadiazol-2-yl)-1-oxo-1,3-dihydro-2H-isoindol-2-yl)-1-methyl-1H-pyrazole-4-carboxamide] |
| 99 | Cn1cc(C(=O)N2CCC(F)(F)CC2)c(N2Cc3ccc(-c4nnc(C(F)F)o4)cc3C2=O)n1 [Example 569, 6-(5-(difluoromethyl)-1,3,4-oxadiazol-2-yl)-2-(4-((4,4-difluoropiperidin-1-yl)carbonyl)-1-methyl-1H-pyrazol-3-yl)isoindolin-1-one] |

same assay, conditions: read-out: HDAC6 inhibitory rate (%) (10 μM)

| Compound | inhibition at 10 µM [%] |
| --- | --- |
| O=C1c2cc(-c3nnc(C(F)F)o3)ccc2CN1[C@@H]1CCCC[C@H]1N1CC(F)(F)C(F)(F)C(F)(F)C1 [Example 531, 6-(5-(difluoromethyl)-1,3,4-oxadiazol-2-yl)-2-((1R,2R)-2-(3,3,4,4,5,5-hexafluoropiperidin-1-yl)cyclohexyl)isoindolin-1-one] | 100 |
